Data as given in the NIST ThermoML archive (doi:10.1021/acs.jced.7b00650).
Numbers after ± are expanded uncertainties.

Conditions: Liquid; for viscosity: Capillary tube (Ostwald / Ubbelohde) method; for mass density: Vibrating tube method

CCCCCCCCC [nonane]
Conditions | mass density [kg/m3] | viscosity [mPa·s]
293.21 K, 1993 kPa | 719.36 ± 0.95 | 0.7109 ± 0.008
293.21 K, 3991 kPa | 721.16 ± 0.96 | 0.7266 ± 0.0081
293.21 K, 5993 kPa | 722.88 ± 0.96 | 0.7426 ± 0.0083
293.21 K, 7996 kPa | 724.42 ± 0.97 | 0.7587 ± 0.0085
293.21 K, 10001 kPa | 725.92 ± 0.98 | 0.775 ± 0.0086
293.21 K, 13001 kPa | 728 ± 0.99 | 0.8 ± 0.0089
293.21 K, 19004 kPa | 732.11 ± 1 | 0.8517 ± 0.0095
293.21 K, 22005 kPa | 734.14 ± 1 | 0.8782 ± 0.0097
293.21 K, 24997 kPa | 736.13 ± 1 | 0.9052 ± 0.01
293.21 K, 27997 kPa | 738.31 ± 1.1 | 0.9329 ± 0.01
293.21 K, 29995 kPa | 739.58 ± 1.1 | 0.9516 ± 0.01
293.22 K, 16000 kPa | 730.02 ± 1 | 0.8254 ± 0.0092
313.1 K, 19007 kPa | 718.18 ± 1 | 0.6634 ± 0.0074
313.1 K, 22007 kPa | 720.52 ± 1 | 0.6827 ± 0.0077
313.1 K, 25009 kPa | 722.7 ± 1 | 0.7023 ± 0.0079
313.1 K, 28007 kPa | 724.82 ± 1 | 0.7222 ± 0.0081
313.1 K, 30010 kPa | 726.21 ± 1.1 | 0.7357 ± 0.0082
313.11 K, 2000 kPa | 704.08 ± 0.93 | 0.559 ± 0.0063
313.11 K, 4007 kPa | 705.88 ± 0.94 | 0.5709 ± 0.0065
313.11 K, 6006 kPa | 707.62 ± 0.95 | 0.5829 ± 0.0066
313.11 K, 8004 kPa | 709.24 ± 0.95 | 0.595 ± 0.0067
313.11 K, 10007 kPa | 710.92 ± 0.96 | 0.6072 ± 0.0068
313.11 K, 13003 kPa | 713.28 ± 0.97 | 0.6256 ± 0.007
313.11 K, 16007 kPa | 715.76 ± 0.98 | 0.6444 ± 0.0072
333 K, 2014 kPa | 688.53 ± 0.92 | 0.4535 ± 0.0052
333 K, 3990 kPa | 690.6 ± 0.92 | 0.4631 ± 0.0053
333 K, 5995 kPa | 692.58 ± 0.93 | 0.4727 ± 0.0054
333.01 K, 8001 kPa | 694.51 ± 0.94 | 0.4824 ± 0.0055
333.01 K, 10007 kPa | 696.11 ± 0.95 | 0.4921 ± 0.0056
333.01 K, 13004 kPa | 698.84 ± 0.96 | 0.5067 ± 0.0058
333.01 K, 16002 kPa | 701.48 ± 0.97 | 0.5215 ± 0.0059
333.01 K, 19006 kPa | 704.03 ± 0.98 | 0.5364 ± 0.0061
333.01 K, 22003 kPa | 706.5 ± 1 | 0.5515 ± 0.0063
333.01 K, 25006 kPa | 708.9 ± 1 | 0.5667 ± 0.0064
333.01 K, 28003 kPa | 711.23 ± 1 | 0.5821 ± 0.0066
333.01 K, 30012 kPa | 712.74 ± 1 | 0.5925 ± 0.0067
353.12 K, 2004 kPa | 672.27 ± 0.9 | 0.3733 ± 0.0044
353.12 K, 3995 kPa | 674.59 ± 0.9 | 0.3814 ± 0.0045
353.12 K, 6000 kPa | 676.83 ± 0.91 | 0.3894 ± 0.0045
353.12 K, 8005 kPa | 679.1 ± 0.92 | 0.3975 ± 0.0046
353.12 K, 10010 kPa | 681.31 ± 0.93 | 0.4056 ± 0.0047
353.12 K, 13002 kPa | 684.37 ± 0.94 | 0.4178 ± 0.0048
353.12 K, 16003 kPa | 687.3 ± 0.96 | 0.43 ± 0.005
353.12 K, 18999 kPa | 689.99 ± 0.97 | 0.4422 ± 0.0051
353.12 K, 22002 kPa | 692.72 ± 0.99 | 0.4546 ± 0.0052
353.12 K, 25004 kPa | 695.35 ± 1 | 0.467 ± 0.0054
353.12 K, 28007 kPa | 697.9 ± 1 | 0.4795 ± 0.0055
353.12 K, 30003 kPa | 699.56 ± 1 | 0.4879 ± 0.0056

CCCCCCCC [octane]
Conditions | mass density [kg/m3] | viscosity [mPa·s]
293.21 K, 1996 kPa | 703.76 ± 0.93 | 0.5512 ± 0.0062
293.21 K, 8004 kPa | 709.25 ± 0.95 | 0.5874 ± 0.0066
293.21 K, 13010 kPa | 713.21 ± 0.97 | 0.6183 ± 0.0069
293.21 K, 30002 kPa | 725.54 ± 1 | 0.7285 ± 0.008
293.22 K, 3994 kPa | 705.71 ± 0.94 | 0.5631 ± 0.0063
293.22 K, 6001 kPa | 707.57 ± 0.94 | 0.5752 ± 0.0064
293.22 K, 10009 kPa | 710.88 ± 0.96 | 0.5997 ± 0.0067
293.22 K, 16009 kPa | 715.43 ± 0.98 | 0.6371 ± 0.0071
293.22 K, 19011 kPa | 717.57 ± 0.99 | 0.6566 ± 0.0073
293.22 K, 22012 kPa | 719.76 ± 1 | 0.6759 ± 0.0075
293.22 K, 25004 kPa | 721.88 ± 1 | 0.6954 ± 0.0077
293.22 K, 28004 kPa | 724.19 ± 1 | 0.7152 ± 0.0079
313.1 K, 5999 kPa | 692.07 ± 0.93 | 0.4593 ± 0.0052
313.1 K, 19006 kPa | 703.5 ± 0.98 | 0.5234 ± 0.0059
313.1 K, 21998 kPa | 706.05 ± 0.99 | 0.5385 ± 0.0061
313.1 K, 25000 kPa | 708.39 ± 1 | 0.5539 ± 0.0062
313.1 K, 27998 kPa | 710.67 ± 1 | 0.5694 ± 0.0064
313.1 K, 30001 kPa | 712.15 ± 1 | 0.5798 ± 0.0065
313.11 K, 2007 kPa | 688.27 ± 0.91 | 0.4402 ± 0.005
313.11 K, 4000 kPa | 690.26 ± 0.92 | 0.4497 ± 0.0051
313.11 K, 7997 kPa | 693.85 ± 0.93 | 0.469 ± 0.0053
313.11 K, 10009 kPa | 695.59 ± 0.94 | 0.4788 ± 0.0054
313.11 K, 13005 kPa | 698.26 ± 0.95 | 0.4935 ± 0.0056
313.11 K, 16009 kPa | 700.84 ± 0.97 | 0.5083 ± 0.0057
333 K, 22003 kPa | 691.91 ± 0.98 | 0.4414 ± 0.005
333.01 K, 2005 kPa | 672.19 ± 0.89 | 0.3601 ± 0.0042
333.01 K, 3993 kPa | 674.49 ± 0.9 | 0.3681 ± 0.0043
333.01 K, 5998 kPa | 676.69 ± 0.91 | 0.3761 ± 0.0044
333.01 K, 8014 kPa | 678.82 ± 0.92 | 0.3841 ± 0.0044
333.01 K, 10007 kPa | 680.8 ± 0.93 | 0.3921 ± 0.0045
333.01 K, 13004 kPa | 683.6 ± 0.94 | 0.4043 ± 0.0046
333.01 K, 16002 kPa | 686.47 ± 0.95 | 0.4166 ± 0.0048
333.01 K, 19006 kPa | 689.24 ± 0.97 | 0.4289 ± 0.0049
333.01 K, 25006 kPa | 694.49 ± 1 | 0.4539 ± 0.0052
333.01 K, 28003 kPa | 696.99 ± 1 | 0.4666 ± 0.0053
333.01 K, 30012 kPa | 698.61 ± 1 | 0.4751 ± 0.0054
353.12 K, 2008 kPa | 655.38 ± 0.87 | 0.2974 ± 0.0035
353.12 K, 3999 kPa | 657.99 ± 0.88 | 0.3043 ± 0.0036
353.12 K, 6000 kPa | 660.5 ± 0.89 | 0.3112 ± 0.0037
353.12 K, 8001 kPa | 663.11 ± 0.9 | 0.3181 ± 0.0037
353.12 K, 10006 kPa | 665.45 ± 0.91 | 0.325 ± 0.0038
353.12 K, 19000 kPa | 674.99 ± 0.96 | 0.3563 ± 0.0041
353.12 K, 22003 kPa | 677.96 ± 0.97 | 0.3669 ± 0.0043
353.12 K, 25005 kPa | 680.81 ± 0.99 | 0.3775 ± 0.0044
353.12 K, 28008 kPa | 683.56 ± 1 | 0.3882 ± 0.0045
353.12 K, 30004 kPa | 685.34 ± 1 | 0.3954 ± 0.0046
353.13 K, 13003 kPa | 668.83 ± 0.93 | 0.3354 ± 0.0039
353.13 K, 16004 kPa | 672.05 ± 0.94 | 0.3458 ± 0.004
